Laboratory results taken from PubChem BioAssay (NCI).
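Cells were grown in 96-well plates and exposed to each compound for 48 hours at five concentrations; endpoints were interpolated linearly between bracketing concentrations, or set to the highest concentration if not reached. TGI marks complete inhibition of growth.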

Experiments:
Test in all cases: NCI tumour cell line growth inhibition, 48 h
OVCAR-4 ovarian = tested on: OVCAR-4 ovarian
OVCAR-5 ovarian = tested on: OVCAR-5 ovarian
HT29 colon = tested on: HT29 colon
MOLT-4 leukemia = tested on: MOLT-4 leukemia
UO-31 renal = tested on: UO-31 renal
EKVX NSCLC = tested on: EKVX NSCLC
NCI-H460 lung = tested on: NCI-H460 lung
NCI-H226 lung = tested on: NCI-H226 lung
BT-549 breast = tested on: BT-549 breast

Row | Compound | TGI (OVCAR-4 ovarian) [µM] | TGI (OVCAR-5 ovarian) [µM] | TGI (HT29 colon) [µM] | TGI (MOLT-4 leukemia) [µM] | TGI (UO-31 renal) [µM] | TGI (EKVX NSCLC) [µM] | TGI (NCI-H460 lung) [µM] | TGI (NCI-H226 lung) [µM] | TGI (BT-549 breast) [µM]
1 | CCN(CCCl)c1cc(CN(C)C)cc(NC(=O)c2ccc(C(=O)Nc3cccc(N(CCCl)NN)c3)cc2)c1 | 0.364 | 0.989 | 0.0409 | 0.0285 | 1.54 |  |  |  | 
2 | C/C(=C\C(=O)O)C(=O)N(C)c1ccccc1I | > 100 | > 100 |  | > 100 | > 100 | > 100 | > 100 | > 100 | 
3 | CN(CC(=O)O)c1ncc2c(n1)-c1ccccc1CC2 | > 100 | > 100 | > 100 | > 100 | > 100 | > 100 | > 100 | > 100 | 
4 | CCOC(=O)NC(Nc1ccc(C(=O)O)cc1)(C(F)(F)F)C(F)(F)F |  | > 100 | > 100 | > 100 | > 100 | > 100 | > 100 | > 100 | > 100
5 | C=C(C)C1CCC2(C)C1CCC1(C)C2CCC2C3(C)C4OC(OC4=O)C(C)(C)C3CCC21C (configuration not stated) |  | > 100 | > 100 | > 100 | > 100 | > 100 | > 100 | > 100 | > 100
6 | c1csc(-c2cc(-c3ccsc3)cs2)c1 | > 100 | > 100 | > 100 | > 100 | > 100 | > 100 | > 100 |  | > 100
7 | COc1cc(C2C3=C(NC(=O)C2C#N)c2ccc4ccccc4c2OCC3)cc(OC)c1OC (configuration not stated) | > 100 | 42.3 | > 100 | > 100 | 28.3 | > 100 | > 100 |  | 42.9
8 | CCCCCCCCCCCCCCCCOC[C@H](COC(c1ccccc1)(c1ccccc1)c1ccccc1)O[P+](=S)OC (some centres not stated) |  | > 100 | > 100 | > 100 | > 100 | > 100 | > 100 | > 100 | > 100
9 | FC(F)(Sc1ncccn1)c1nc2ccccc2o1 | > 100 | > 100 | > 100 | > 100 | > 100 |  | > 100 | > 100 | > 100
10 | CN1CCN(Cc2ccc(C(=S)Nc3ccccc3)s2)CC1 | > 100 | > 100 | 47.1 | > 100 | > 100 | > 100 | > 100 |  | 76.3
11 | O=C(CN1CCCC1)Nc1ccc2c(c1)C1Oc3ccccc3CC1CO2 (configuration not stated) |  | 93.4 |  | > 100 | 84.4 | > 100 |  | > 100 | 75.4
12 | N#Cc1nc(-c2ccsc2)oc1N |  | > 100 | > 100 | > 100 | > 100 | > 100 |  |  | 
13 | COC1=C(OC)C(=O)C(Cc2c(-c3ccccc3)nc3sc(Cl)cn23)=C(C)C1=O | 18.8 | 56.5 | 41.7 |  | 30.5 | 41.6 | 40 |  | 30.2
14 | COc1cc(-c2cc(OC)c(OC)c3ccc(Br)cc23)c2cc(Br)ccc2c1OC | 31.1 | 39.2 | > 100 | > 100 | 73.7 | > 100 | > 100 | 58.1 | 
15 | N#Cc1cc2c(n(C3OC(CO)C(O)C(O)C3O)c1=S)CCC2 (configuration not stated) | > 100 | > 100 | > 100 | > 100 | > 100 |  | > 100 | > 100 | > 100
16 | Cc1cc(C)n(C(=CC(=O)C(Cl)Cl)n2nc(C)cc2C)n1 | > 100 | 14.5 |  | 0.806 | 27.6 |  | 34.1 | 2.56 | 16.1
17 | CCOC(=O)/C(=C/c1cn(C(C)=O)c2ccccc12)P(=O)(OC)OC | > 100 | > 100 | > 100 | 74.6 |  |  | 79.7 |  | 
18 | CC(C)(C)C(=O)C(N)C(=O)C(C)(C)C | > 100 | > 100 |  | > 100 | > 100 |  | > 100 |  | > 100
19 | CC(=O)N1CN2C(=O)CCC2c2cc(C)ccc21 (configuration not stated) | > 100 | > 100 | > 100 | > 100 | > 100 | > 100 | > 100 | > 100 | 
20 | Cc1cc(C)n(C(C)(C(=O)Cc2ccccc2)n2nc(C)cc2C)n1 | > 100 | > 100 | > 100 | > 100 | > 100 | > 100 | > 100 | > 100 | 
21 | CC1=NN(C(=O)CC(=O)Nc2cccc(C)c2)C(=O)C1N=Nc1ccc(C(=O)O)cc1 (configuration not stated) | > 100 | > 100 | > 100 |  | > 100 | > 100 |  |  | > 100
22 | CC1OC23CCCCC2C(C#N)(C#N)C1(C#N)C(=N)O3 (configuration not stated) |  | 52.6 | > 100 | 90.1 |  | 91.1 | 43.5 | > 100 | 34.4
